Experimental data taken from patent US20240308996A1, “PYRIDOPYRIDINES AND DERIVATIVES THEREOF AS SELECTIVE KINASE INHIBITORS” (University of Sharjah, priority 2023, published 2024).
pIC50: −log10 of the molar value.

Assays:
Type in all cases: cell-based
HL-60(TB) = experiment: NCI-60 cell line panel: HL-60(TB); design: TGI: unit not given here; settings: Leukemia; for pIC50: Homo sapiens; for TGI: total growth inhibition
Procedure: (§1) It was carried out at the NCI, Bethesda, MD, USA, utilizing their standard protocol.

SK-MEL-28 = experiment: NCI-60 cell line panel: SK-MEL-28; settings: Melanoma; for pIC50: Homo sapiens; for TGI: total growth inhibition
Procedure: as §1

M14 = experiment: NCI-60 cell line panel: M14; settings: Melanoma; for pIC50: Homo sapiens; for TGI: total growth inhibition
Procedure: as §1

T-47D = experiment: NCI-60 cell line panel: T-47D; settings: Breast Cancer; for TGI: total growth inhibition; for pIC50: Homo sapiens, T47D
Procedure: as §1

RPMI-8226 = experiment: NCI-60 cell line panel: RPMI-8226; settings: Leukemia; for pIC50: Homo sapiens; for TGI: total growth inhibition
Procedure: as §1

TK-10 = experiment: NCI-60 cell line panel: TK-10; settings: Renal Cancer; for pIC50: Homo sapiens; for TGI: total growth inhibition
Procedure: as §1

MDA-MB-435 = experiment: NCI-60 cell line panel: MDA-MB-435; design: TGI: unit not given here; settings: Melanoma; for pIC50: Homo sapiens; for TGI: total growth inhibition
Procedure: as §1

SF-268 = experiment: NCI-60 cell line panel: SF-268; settings: CNS Cancer; for TGI: total growth inhibition; for pIC50: Homo sapiens
Procedure: as §1

A498 = experiment: NCI-60 cell line panel: A498; settings: Renal Cancer; for pIC50: Homo sapiens; for TGI: total growth inhibition
Procedure: as §1

CAKI-1 = experiment: NCI-60 cell line panel: CAKI-1; design: TGI: unit not given here; settings: Renal Cancer; for pIC50: Homo sapiens; for TGI: total growth inhibition
Procedure: as §1

SW-620 = experiment: NCI-60 cell line panel: SW-620; settings: Colon Cancer; for TGI: total growth inhibition; for pIC50: Homo sapiens
Procedure: as §1

OVCAR-5 = experiment: NCI-60 cell line panel: OVCAR-5; settings: Ovarian Cancer; for pIC50: Homo sapiens; for TGI: total growth inhibition
Procedure: as §1

K-562 = experiment: NCI-60 cell line panel: K-562; design: TGI: unit not given here; settings: for pIC50: Homo sapiens, K562, Leukemia; for TGI: Leukemia, total growth inhibition
Procedure: as §1

SNB-75 = experiment: NCI-60 cell line panel: SNB-75; design: TGI: unit not given here; settings: CNS Cancer; for TGI: total growth inhibition; for pIC50: Homo sapiens
Procedure: as §1

NCI/ADR-RES = experiment: NCI-60 cell line panel: NCI/ADR-RES; design: TGI: unit not given here; settings: Ovarian Cancer; for pIC50: Homo sapiens; for TGI: total growth inhibition
Procedure: as §1

DU-145 = experiment: NCI-60 cell line panel: DU-145; settings: Prostate Cancer; for pIC50: Homo sapiens; for TGI: total growth inhibition
Procedure: as §1

ACHN = experiment: NCI-60 cell line panel: ACHN; settings: Renal Cancer; for pIC50: Homo sapiens; for TGI: total growth inhibition
Procedure: as §1

NCI-H226 = experiment: NCI-60 cell line panel: NCI-H226; settings: Non-Small Cell Lung Cancer; for pIC50: Homo sapiens; for TGI: total growth inhibition
Procedure: as §1

SF-539 = experiment: NCI-60 cell line panel: SF-539; settings: CNS Cancer; for TGI: total growth inhibition; for pIC50: Homo sapiens
Procedure: as §1

HCT-15 = experiment: NCI-60 cell line panel: HCT-15; settings: Colon Cancer; for TGI: total growth inhibition; for pIC50: Homo sapiens
Procedure: as §1

IGROV1 = experiment: NCI-60 cell line panel: IGROV1; settings: for pIC50: Homo sapiens, IGROV-1, Ovarian Cancer; for TGI: Ovarian Cancer, total growth inhibition
Procedure: as §1

RXF 393 = experiment: NCI-60 cell line panel: RXF 393; settings: Renal Cancer; for pIC50: Homo sapiens; for TGI: total growth inhibition
Procedure: as §1

SK-OV-3 = experiment: NCI-60 cell line panel: SK-OV-3; settings: Ovarian Cancer; for pIC50: Homo sapiens; for TGI: total growth inhibition
Procedure: as §1

UO-31 = experiment: NCI-60 cell line panel: UO-31; design: TGI: unit not given here; settings: Renal Cancer; for pIC50: Homo sapiens; for TGI: total growth inhibition
Procedure: as §1

SR = experiment: NCI-60 cell line panel: SR; settings: Leukemia; for pIC50: Homo sapiens; for TGI: total growth inhibition
Procedure: as §1

HCC-2998 = experiment: NCI-60 cell line panel: HCC-2998; settings: Colon Cancer; for TGI: total growth inhibition; for pIC50: Homo sapiens
Procedure: as §1

[1] = system: hepatocellular carcinoma cell lines; experiment: Screening against HCC cell lines
Procedure: The target compounds were tested against hepatocellular carcinoma cell lines. Compounds 1j. 13a. 13b. 13c. […] The mean inhibition percentage values are illustrated in Table 9.
Two HCC cell lines (Hep3B and HepG2) were used for screening the antiproliferative activity of the synthesized compounds. The cell lines were obtained from the European Collection of Cell Cultures (ECACC, UK) and maintained in Dulbecco's Modified Eagle Medium (DMEM: Sigma-Aldrich) supplemented with 10% fetal bovine serum (FBS) and 1% penicillin/streptomycin and incubated at 37° C. in a 5% CO2 air atmosphere. In addition, WI-38 normal cell line was used to investigate the safety of these compounds.
MTT assay was conducted to calculate the IC50 of the compounds following the reported procedure . Briefly, the cells were seeded in 96-well tissue culture plates with a density of 5×10^4 cells/well and incubated overnight at 37° C. in a 5% CO2 air atmosphere. After that, cells were treated with the newly synthesized compounds or sorafenib as a positive control. DMSO was used as a negative control. After 48 h, the media were aspirated, and replaced with media containing 0.5 mg/mL of MTT tetrazolium dye (Sigma-Aldrich) for 2 h at 37° C. Finally, the media were removed and 200 μL of DMSO was added to solubilize the formazan crystals. Absorbance was then measured at 570 nm using Varioskan Flash multimode plate reader (Thermo Scientific, Massachusetts, USA).

CCRF-CEM = experiment: NCI-60 cell line panel: CCRF-CEM; settings: Leukemia; for pIC50: Homo sapiens; for TGI: total growth inhibition
Procedure: as §1

MDA-MB-231/ATCC = experiment: NCI-60 cell line panel: MDA-MB-231/ATCC; settings: Breast Cancer; for TGI: total growth inhibition; for pIC50: Homo sapiens
Procedure: as §1

KM12 = experiment: NCI-60 cell line panel: KM12; settings: Colon Cancer; for TGI: total growth inhibition; for pIC50: Homo sapiens
Procedure: as §1

## CC(C)NC(=O)c1cc(-c2ccc(NC(=O)Nc3ccc(N4CCN(C)CC4)c(C(F)(F)F)c3)cc2)nc2cccnc12 [Compound 13e, N-Isopropyl-2-(4-(3-(4-(4-methylpiperazin-1-yl)-3-(trifluoromethyl)phenyl)ureido)phenyl)-1,5-naphthyridine-4-carboxamide]
HL-60(TB)
  pIC50: 6.11
  TGI: 2.12
SK-MEL-28
  pIC50: 6.19
  TGI: 1170 nM
M14
  pIC50: 6.17
  TGI: 1410 nM
T-47D
  TGI: 24700 nM
  pIC50: 5.12
RPMI-8226
  pIC50: 6.01
  TGI: 3480 nM
TK-10
  pIC50: 6.15
  TGI: 1310 nM
MDA-MB-435
  pIC50: 6.21
  TGI: 1.26
SF-268
  TGI: 1620 nM
  pIC50: 6.15
A498
  pIC50: 5.33
  TGI: 9610 nM
CAKI-1
  pIC50: 6.19
  TGI: 1.22
SW-620
  TGI: 1300 nM
  pIC50: 6.17
OVCAR-5
  pIC50: 6.19
  TGI: 1230 nM
K-562
  pIC50: 6.04
  TGI: >38.8
SNB-75
  TGI: 3.97
  pIC50: 6.23
NCI/ADR-RES
  pIC50: 5.93
  TGI: 3.71
DU-145
  pIC50: 6.14
  TGI: 1350 nM
ACHN
  pIC50: 6.19
  TGI: 1180 nM
NCI-H226
  pIC50: 5.25
  TGI: 14700 nM
SF-539
  TGI: 990 nM
  pIC50: 6.30
HCT-15
  TGI: 1410 nM
  pIC50: 6.15
IGROV1
  pIC50: 6.13
  TGI: 1390 nM
RXF 393
  pIC50: 6.29
  TGI: 1110 nM
SK-OV-3
  pIC50: 5.53
  TGI: 8230 nM
UO-31
  pIC50: 6.23
  TGI: 1.11
SR
  pIC50: 6.00
  TGI: 3190 nM
HCC-2998
  TGI: 1360 nM
  pIC50: 6.15
[1]
  inhibition activity against hepatocellular carcinoma cell lines compared with sorafenib: higher inhibition activity than sorafenib
CCRF-CEM
  pIC50: 6.13
  TGI: 1980 nM
MDA-MB-231/ATCC
  TGI: 1260 nM
  pIC50: 6.17
KM12
  TGI: 1660 nM
  pIC50: 6.10

## CCN1CCN(c2ccc(NC(=O)Nc3ccc(-c4cc(C(=O)NC)c5ncccc5n4)cc3)cc2C(F)(F)F)CC1 [Compound 13c, 2-(4-(3-(4-(4-Ethylpiperazin-1-yl)-3-(trifluoromethyl)phenyl)ureido)phenyl)-N-methyl-1,5-naphthyridine-4-carboxamide]
HL-60(TB)
  pIC50: 5.47
  TGI: >18.0
SK-MEL-28
  pIC50: 6.49
  TGI: 580 nM
M14
  pIC50: 6.40
  TGI: 1050 nM
T-47D
  TGI: > 18000 nM
  pIC50: 5.43
RPMI-8226
  pIC50: 5.52
  TGI: > 18000 nM
TK-10
  pIC50: 5.41
  TGI: 6630 nM
MDA-MB-435
  pIC50: 6.57
  TGI: 0.56
SF-268
  TGI: 7000 nM
  pIC50: 5.51
A498
  pIC50: 5.56
  TGI: 5310 nM
CAKI-1
  pIC50: 5.52
  TGI: 5.60
SW-620
  TGI: 620 nM
  pIC50: 6.51
OVCAR-5
  pIC50: 5.55
  TGI: 5230 nM
K-562
  pIC50: 6.18
  TGI: >18.0
SNB-75
  TGI: 3.82
  pIC50: 6.08
NCI/ADR-RES
  pIC50: 5.75
  TGI: 8.09
DU-145
  pIC50: 5.65
  TGI: 4900 nM
ACHN
  pIC50: 5.62
  TGI: 4730 nM
NCI-H226
  pIC50: 5.57
  TGI: 6360 nM
SF-539
  TGI: 4570 nM
  pIC50: 5.64
HCT-15
  TGI: 700 nM
  pIC50: 6.48
IGROV1
  pIC50: 5.52
  TGI: 5610 nM
RXF 393
  pIC50: 6.31
  TGI: 1660 nM
SK-OV-3
  pIC50: 5.46
  TGI: 7500 nM
UO-31
  pIC50: 5.57
  TGI: 5.14
SR
  pIC50: 6.17
  TGI: > 18000 nM
HCC-2998
  TGI: 5310 nM
  pIC50: 5.55
[1]
  inhibition activity against hepatocellular carcinoma cell lines compared with sorafenib: higher inhibition activity than sorafenib
CCRF-CEM
  pIC50: 6.34
  TGI: 1270 nM
MDA-MB-231/ATCC
  TGI: 5250 nM
  pIC50: 5.56
KM12
  TGI: 6650 nM
  pIC50: 5.49
